Results: patent US20020034725A1, “SENSITIZATION OF CELLS TO RADIATION AND AND CHEMOTHERAPY” (priority 1996, published 2002)

Tested on: SW480 colon carcinoma cells
Assay: Clonogenic radiation survival of SW480 cells
Type: cell-based, human
Details: 30 μM FTI-277, 24 hours before irradiation
Procedure: SW480 cells were treated for 24 hours with 30 μM FTI-277 before irradiation. Clonogenic survival was subsequently assessed in the cells. Treatment with the inhibitor was maintained for 24 hours after irradiation, at which time medium was replaced with inhibitor free medium. Control cells were treated as above with diluent. Open squares: control cells; closed squares: FTI-277 treated cells.
FIG. 18B is a graph depicting a reduction in the radiation survival of SW480 cells following inhibition of K-ras prenylation by FTI-277 and GGTI-298. SW480 cells were treated for 24 hours with 5 μM FTI-277 and 8 μM GGTI-298 before irradiation and assessment of clonogenic survival. Inhibitor treatment was maintained for 24 hours after irradiation, at which time the medium was replaced with inhibitor free medium. Control cells were treated as above with an equal amount of drug-free diluent. Open squares: control cells; closed squares: FTI and GGTI treated cells.

`COC(=O)[C@H](CCSC)NC(=O)c1ccc(NC[C@@H](N)CS)cc1-c1ccccc1` [FTI-277] was tested, and the radiation survival was “reduction in radiation survival”.
